Series [1] deals with bFGF-induced proliferation of HUVEC. Put plainly: bFGF-induced HUVEC proliferation (acid phosphatase assay). The series is classed as cell-based, human. The following applies: bFGF 20 ng/ml; 0.004-10 μg/ml compound; 48 hours; FIG. 1. The text has this: (§1) To determine the inhibitory effect of the compound represented by the chemical formula 1 on angiogenesis, endothelial cells were used as a model on the basis that they are migrated and differentiated into capillary tubes under a specific culture condition, that is, in the presence of angiogenic factors such as VEGF, bFGF, etc. Stimulation by angiogenic factors triggers complex, intracellular reactions of endothelial cells and causes them to undergo cell proliferation and differentiation, resulting in the induction of angiogenesis. […] In gelatin-coated 96-well plates, HUVEC cultured in an M199 medium (20% FBS, 3 ng/ml bFGF, 100 μg/ml heparin) was plated at a density of 10^4 cells/well and cultured for 24 hours under the condition of serum starvation. Thereafter, VEGF and bFGF were independently added at a concentration of 20 ng/ml per well and ACRL-B4 was also added at concentrations of 0.004, 0.02, 0.08, 0.4, 2 and 10 μg/ml while control wells were treated with angiogenic factors only. After 48 hours incubation, the inhibition of HUVEC proliferation by the ACRL-B4 was quantitatively analyzed by an acid phosphatase assay.

Series [2] has as its system VEGF-induced proliferation of HUVEC. Put plainly: VEGF-induced HUVEC proliferation (acid phosphatase assay). In kind it is cell-based, human. Particulars: VEGF 20 ng/ml; 0.004-10 μg/ml compound; 48 hours; FIG. 1.
Text: as §1

The nature of series [3]: Acute toxicity test on rat upon oral administration. The following applies: in vivo, 500 mg/kg. The method, then:
Using specific pathogen-free (SPF) SD rats, which were six weeks old, the 7,8-dihydro-xanthenone-8-carboxylic acid derivative of the present invention were tested for acute toxicity.
Suspensions of the compound of the present invention in 0.5% methyl cellulose were orally administered once at a dose of 500 mg/kg/15 ml to the rats, which were grouped in threes. […] An autopsy was made of the rats with the naked eye to observe whether their abdominal and thoracic organs were damaged.

Series [4] deals with Lewis lung carcinoma 3LL cells. Put plainly: In vivo tumor growth, 3LL Lewis lung carcinoma in C57BL/6 mice. More on the design: species or system mouse. Particulars: for inhibition of tumor growth: 3LL in C57BL/6 mice. The procedure: Into the backs of C57BL/6 mice 4-5 weeks old, 10^6 3LL cancer cells (Korean Collection for Type Culture at Korea Research Institute of Bioscience and Biotechnology) were subcutaneously transplanted. When the tumors were grown to sizes of 100-250 mm^3, the mice were randomly mixed and divided into 4 groups, each of 6 members, to which drugs were administered. For Group 1, only a solvent was used, while the novel compound ACRL-B4 represented by the chemical formula 1 was intraperitoneally injected every other day at doses of 30 mg/kg, 15 mg/kg and 5 mg/kg to Groups 2 to 4, respectively, under the monitoring of tumor sizes and body weights. The test compound was dissolved in a solvent mixture of 85% physiological saline, 5% DMSO (dimethylsulfoxide) and 10% cremophore.
Tumor sizes were calculated according to the following mathematical formula 1, and since the transplantation of cancer cells, changes in tumor size had been measured and the results are depicted in FIG. 2. [formula]

In a further series the test system is B16-BL6 melanoma cells. Put plainly: In vivo tumor growth, B16-BL6 melanoma in C57BL/6 mice. More on the design: species or system mouse. Particulars: for inhibition of tumor growth: B16-BL6 in C57BL/6 mice. The procedure:
Onto the back of C57BL/6 mice 4-5 weeks old, 10^6 B16-BL6 melanoma cells were subcutaneously transplanted. When the tumors were grown to sizes of 100-250 mm^3, the mice were randomly mixed and divided into 4 groups, each of 6 members, to which drugs were then administered. For Group 1, only a solvent was used, while the novel compound ACRL-B4 represented by the chemical formula 1 was intraperitoneally injected every other day at doses of 30 mg/kg, 15 mg/kg and 5 mg/kg to Groups 2 to 4, respectively, with monitoring of tumor sizes and body weights. The test compound was dissolved in a solvent mixture of 85% physiological saline, 5% DMSO (dimethylsulfoxide) and 10% cremophore.
For the calculation of cancer sizes, the mathematical formula 1 was used, and since the transplantation of cancer cells, changes in tumor size had been measured and the results are depicted in FIG. 3.

The subject of series [5] is angiogenesis in chorioallantoic membrane. Put plainly: Chorioallantoic membrane (CAM) assay using fertilized eggs. The series is classed as in vivo. Particulars: for Inhibition ratio (%): percentage of positive eggs to total tested eggs. The method, then: <4-2> Inhibitory Effect on in vivo Angiogenesis Chorioallantoic membrane assay using fertilized eggs was used to examine whether the novel compound ACRL-B4 of the present invention is effective to inhibit angiogenesis in vivo.
After being grown at 37° C. for three days at a humidity of 90% in an incubator, fertilized eggs were deprived of 2 ml of albumin through a 18-gauge subcutaneous injection needle. On the fourth day, a circular window was cut into each of the eggs and the outer layers of their chorioallantoic membranes were removed. Separately, pieces of thermanox coverslip were coated with the ACRL-B4 compound dissolved in ethanol at the concentration of 1 and 5 μg/coverslip and the ethanol was evaporated. On day 4.5, the thermanox coverslip were placed on the embryonic chorioallantoic membranes of the embryos. After 2 days incubation at 37° C., 1-2 ml of 10% fat emulsion was injected into chorioallantois and observed blood vessel formation during an embryogenesis or development procedure under a microscope. As a positive control, 1 μg/egg of retinoic acid was used and a negative control was non-treated coverslip.

Series [6] has as its system smooth muscle myosin light chain kinase. The following applies: Nakanishi et al., J. Antibiotics 1993; cited from earlier work.
The next series concerns protein kinase C. Particulars: Nakanishi et al., J. Antibiotics 1993; cited from earlier work.

“And” between values parts separate entries of the source, which are not always exact repeats. Equal entries are not always repeated. “Also recorded” adds a separate entry of the source. Some results are limits rather than exact numbers.

By LD50 is commonly meant the dose expected to kill half of the subjects tested. Consider `COC(=O)C1c2c(oc3cc(CO)cc(O)c3c2=O)C=CC1O` (stereo not shown) [ACRL-B4, 7,8-dihydro-1,7-dihydroxy-3-hydroxymethyl-xanthenone-8-carboxylic acid methyl ester], for which the “inhibition of bFGF-induced HUVEC proliferation” value in series [1] was “inhibit the HUVEC proliferation induced by angiogenic factors”. Also, the “inhibition of VEGF-induced HUVEC proliferation” value in series [2] is recorded as “specifically inhibit the VEGF-induced proliferation of HUVEC; also recorded: potent inhibitory activity against the proliferation of HUVEC; also recorded: inhibit the HUVEC proliferation induced by angiogenic factors, especially VEGF”. The LD50 in series [3] (oral, single dose, SD rats, read-out: lethal dose (LD50)) was not below 500 mg/kg. Also, the “death and clinical symptoms” value in series [3] (po) was “Neither sudden death nor noticeable clinical symptoms were detected”. The “toxicity signs (weight change, serological tests, serobiochemical tests, corpse examination)” value in series [3] (po) is “no toxicity signs were observed”. Moreover, the “inhibition of tumor growth” value in series [4] (5 mg/kg i.p. every other day) is listed as 40%; in series [4] (15 mg/kg i.p. every other day) it was 60%; in series [4] (30 mg/kg i.p. every other day), 80%; in the series on B16-BL6 melanoma cells (5 mg/kg i.p. every other day) it was 40%; with B16-BL6 melanoma cells (15 mg/kg i.p. every other day) it was 50%; in the series with B16-BL6 melanoma cells (30 mg/kg i.p. every other day), 65%. The “side effects / body weight” value in series [4] (5-30 mg/kg i.p. every other day, 3LL-bearing C57BL/6 mice) is on record as “did not exhibit toxic effects such as weight loss; also recorded: without causing side effects such as loss of body weight”; with B16-BL6 melanoma cells (5-30 mg/kg i.p. every other day, B16-BL6-bearing C57BL/6 mice), “did not exhibit toxic effects such as weight loss; also recorded: without causing side effects such as loss of body weight”. The “No. of egg showing anti-angiogenesis” value in series [5] (1 μg/egg) was determined as 10; in series [5] (5 μg/egg), 9. For the same compound, the “Inhibition ratio (%)” value was 71% and 71.4% in series [5] (1 μg/egg); 90% in series [5] (5 μg/egg).

`COC(=O)C12OC1C=Cc1oc3cc(CO)cc(O)c3c(=O)c12` (stereo not shown) [MS-347a]: the “inhibition of smooth muscle myosin light chain kinase” value in series [6] is “inhibitory activity against smooth muscle myosin light chain kinase”. In addition, the “inhibition of protein kinase C” value in the series on protein kinase C is recorded as “inhibitory activity”.

With `CC1=C(/C=C/C(C)=C/C=C/C(C)=C/C(=O)O)C(C)(C)CCC1` [Positive control, retinoic acid, reference compound], in series [5] (1 μg/egg), the “No. of egg showing anti-angiogenesis” value turned out to be 6 and the “Inhibition ratio (%)” value is on record as 75%.

As for `COC(=O)c1c(O)ccc2oc3cc(CO)cc(O)c3c(=O)c12` [sydowinin B], in series [6], the “inhibition of smooth muscle myosin light chain kinase” value is “inhibitor of smooth muscle myosin light chain kinase”.

The values above are taken from US6770671B2, “7,8-dihydro-xanthenone-8-carboxylic acid derivative and novel microbe producing the same” (Korea Research Institute of Bioscience and Biotechnology, priority 2000, dated 2004).
